Experiments:
[1] = system: K. pneumoniae A-1797 expressing KPC-2 and VIM-4; test: Broth microdilution MIC, K. pneumoniae A-1797 KPC-2/VIM-4; format: cell-based; settings: fixed 4 μg/mL meropenem; CAMHB, 16-20 hours at 37° C.
How it was run: (§1)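 Potentiation MIC by CLSI broth microdilution in cation-adjusted Mueller Hinton broth. Test compound was 2-fold serially diluted from 32 to 0.25 μg/ml with a β-lactam held at a static 4 μg/ml. After 16-20 h at 37° C, MIC was read visually.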

[2] = system: P. aeruginosa Ps296 expressing VIM-2; test: Broth microdilution MIC, P. aeruginosa Ps296 VIM-2; format: cell-based; settings: fixed 4 μg/mL meropenem; CAMHB, 16-20 hours at 37° C.
How it was run: as §1

[3] = biological target: T1, p99 AmpC β-lactamase (Class C) (Enterobacter cloacae, UniProt P05364); test: β-Lactamase inhibition, p99 AmpC; format: biochemical
T1 construct: made in house; host or cells: E. coli BL21(DE3)

[4] = biological target: T2, KPC-2 β-lactamase (Class A carbapenemase) (Klebsiella pneumoniae, UniProt Q9F663); test: β-Lactamase inhibition, KPC-2; format: biochemical; settings: imipenem substrate, 300 nm; 15 min preincubation at 37° C., PBS pH 7.4
T2 construct: made in house; host or cells: E. coli BL21(DE3)
How it was run: (§2)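 Native untagged enzymes expressed in E. coli BL21(DE3), purified by cation exchange and gel filtration. Inhibitor preincubated with enzyme 15 min at 37 °C; hydrolysis followed by absorbance: imipenem at 300 nm for KPC-2, cefotaxime at 260 nm for SHV-5. IC50 as concentration halving initial hydrolysis rate versus inhibitor-free wells.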

[5] = biological target: T3, VIM-2 metallo-β-lactamase (Class B) (Pseudomonas aeruginosa, UniProt Q9K2N0); test: β-Lactamase inhibition, VIM-2; format: biochemical; settings: nitrocefin 100 μM, 486 nm; 15 min preincubation at 37° C., PBS pH 7.4
T3 construct: made in house; host or cells: E. coli BL21(DE3)
How it was run: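 Purified VIM-2 (Q sepharose anion exchange, Hepes pH 7.5, >90% pure) was preincubated with inhibitor at 37 °C for 15 min, then nitrocefin added at 100 μM final. Absorbance at 486 nm was followed for 10 min; IC50 was taken from maximum hydrolysis rates relative to inhibitor-free controls.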

[6] = system: S. aureus MSSA-7 producing penicillinase PC-1; test: Broth microdilution MIC, S. aureus MSSA-7 PC-1; format: cell-based; settings: fixed 4 μg/mL piperacillin; CAMHB, 16-20 hours at 37° C.
How it was run: as §1

[7] = biological target: T4, OXA-1 β-lactamase (Class D oxacillinase) (Escherichia coli, UniProt P13661); test: β-Lactamase inhibition, OXA-1; format: biochemical; settings: nitrocefin 100 μM, 486 nm; 15 min preincubation at 37° C., PBS pH 7.4
T4 construct: made in house; host or cells: E. coli BL21(DE3)
How it was run: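 Untagged enzyme from E. coli BL21(DE3), purified by Capto S then Superdex 75; 15 min 37 °C preincubation with inhibitor; KPC-2 read with imipenem at 300 nm, SHV-5 with cefotaxime at 260 nm, OXA-1 with nitrocefin 100 μM final at 486 nm; 10 min kinetic read; IC50 vs uninhibited wells.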

[8] = biological target: T5, SHV-5 β-lactamase (Class A ESBL) (Klebsiella pneumoniae, UniProt P0A3M1); test: β-Lactamase inhibition, SHV-5; format: biochemical
T5 construct: made in house; host or cells: E. coli BL21(DE3)
How it was run: as §2

[9] = system: E. coli ESBL4 expressing CTX-M-15; test: Broth microdilution MIC, E. coli ESBL4 CTX-M-15; format: cell-based; settings: fixed 4 μg/mL ceftazidime; CAMHB, 16-20 hours at 37° C.
How it was run: as §1

[10] = system: K. pneumoniae 156319 expressing KPC-3; test: Broth microdilution MIC, K. pneumoniae 156319 KPC-3; format: cell-based; settings: fixed 4 μg/mL meropenem; CAMHB, 16-20 hours at 37° C.
How it was run: as §1

[11] = system: E. cloacae 144200 expressing Class C P99 AmpC; test: Broth microdilution MIC, E. cloacae 144200 p99 AmpC; format: cell-based; settings: fixed 4 μg/mL ceftazidime; CAMHB, 16-20 hours at 37° C.
How it was run: as §1

T5 sequence (P0A3M1 22-286): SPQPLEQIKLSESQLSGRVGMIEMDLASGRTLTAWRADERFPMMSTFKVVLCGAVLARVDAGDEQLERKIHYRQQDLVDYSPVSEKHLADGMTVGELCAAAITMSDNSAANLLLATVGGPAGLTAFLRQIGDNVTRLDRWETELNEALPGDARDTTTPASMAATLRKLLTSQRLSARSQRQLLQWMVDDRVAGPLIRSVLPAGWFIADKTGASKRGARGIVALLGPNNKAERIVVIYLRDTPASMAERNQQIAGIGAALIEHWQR
T4 sequence (P13661 26-276): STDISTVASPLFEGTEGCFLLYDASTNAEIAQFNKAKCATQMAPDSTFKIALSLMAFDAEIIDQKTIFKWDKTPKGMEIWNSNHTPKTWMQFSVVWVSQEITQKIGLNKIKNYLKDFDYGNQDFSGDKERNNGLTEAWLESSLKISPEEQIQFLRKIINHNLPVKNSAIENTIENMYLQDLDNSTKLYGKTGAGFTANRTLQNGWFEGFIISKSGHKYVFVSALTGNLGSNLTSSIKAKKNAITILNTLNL
T1 sequence (P05364 21-381): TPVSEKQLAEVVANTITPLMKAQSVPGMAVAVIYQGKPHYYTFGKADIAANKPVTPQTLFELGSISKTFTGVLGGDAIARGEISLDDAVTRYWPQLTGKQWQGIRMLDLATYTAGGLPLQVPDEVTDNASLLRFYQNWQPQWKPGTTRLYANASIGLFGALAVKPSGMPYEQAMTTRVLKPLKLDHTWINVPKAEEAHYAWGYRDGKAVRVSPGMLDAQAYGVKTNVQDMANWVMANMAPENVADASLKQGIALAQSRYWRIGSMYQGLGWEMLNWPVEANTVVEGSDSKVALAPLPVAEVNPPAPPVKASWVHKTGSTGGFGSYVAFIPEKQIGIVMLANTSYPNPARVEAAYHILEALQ
T2 sequence (Q9F663 25-293, looked up): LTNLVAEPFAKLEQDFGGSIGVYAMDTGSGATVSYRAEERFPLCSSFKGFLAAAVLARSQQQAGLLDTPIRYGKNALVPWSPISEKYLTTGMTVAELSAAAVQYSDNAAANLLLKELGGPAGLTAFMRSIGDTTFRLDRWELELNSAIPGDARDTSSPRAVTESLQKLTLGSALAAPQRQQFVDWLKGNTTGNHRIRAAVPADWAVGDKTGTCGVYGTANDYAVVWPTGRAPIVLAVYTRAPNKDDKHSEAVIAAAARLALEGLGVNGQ

Compound	MIC of example compound in presence of fixed β-lactam: Fixed Mero, K. P. A-1797 KPC-2 VIM-4 [1]	MIC of example compound in presence of fixed β-lactam: Fixed Mero, P. aerug. Ps296 VIM-2 [2]	IC50 [3]	IC50 [4]	IC50 [5]	MIC of example compound in presence of fixed β-lactam: Fixed Pip, S. aureus MSSA-7 PC-1 [6]	IC50 [7]	IC50 [8]	MIC of example compound in presence of fixed β-lactam: Fixed CAZ, E. coli ESBL4 CTX-M-15 [9]	MIC of example compound in presence of fixed β-lactam: Fixed Mero, K. P. 156319 KPC-3 [10]	MIC of example compound in presence of fixed β-lactam: Fixed CAZ, E. cl. 144200 p99 AmpC [11]
CN(C)CCN1CCN(CC(=O)N[C@H]2Cc3cccc(C(=O)O)c3OB2O)CC1 [Example 3, 3-{2-[4-(2-Dimethylamino-ethyl)-piperazin-1-yl]-acetylamino}-2-hydroxy-3,4-dihydro-2H-benzo[e][1,2]oxaborinine-8-carboxylic acid]	B (the MIC in the presence of between 8 and 32 μg/mL of a β-lactamase inhibitor)	C (the MIC in the presence of <4 μg/mL of a β-lactamase inhibitor)	< 100 nM	< 100 nM	1000 to 10000 nM	C (the MIC in the presence of <4 μg/mL of a β-lactamase inhibitor)	100 to 1000 nM	< 100 nM	C (the MIC in the presence of <4 μg/mL of a β-lactamase inhibitor)	C (the MIC in the presence of <4 μg/mL of a β-lactamase inhibitor)	C (the MIC in the presence of <4 μg/mL of a β-lactamase inhibitor)
O=C(O)c1cccc2c1OB(O)[C@@H](NC(=O)C1CCNCC1)C2 [Example 44, 2-Hydroxy-3-[(piperidine-4-carbonyl)-amino]-3,4-dihydro-2H-benzo[e][1,2]oxaborinine-8-carboxylic acid]	A (an MIC of the fixed β-lactam antibiotic in the presence of >32 μg/mL of a β-lactamase inhibitor)	A (an MIC of the fixed β-lactam antibiotic in the presence of >32 μg/mL of a β-lactamase inhibitor)	< 100 nM	< 100 nM	10000 to 100000 nM	C (the MIC in the presence of <4 μg/mL of a β-lactamase inhibitor)	< 100 nM	< 100 nM	C (the MIC in the presence of <4 μg/mL of a β-lactamase inhibitor)	C (the MIC in the presence of <4 μg/mL of a β-lactamase inhibitor)	C (the MIC in the presence of <4 μg/mL of a β-lactamase inhibitor)

From patent US10294248B2, “Beta-lactamase inhibitors” (VenatoRx Pharmaceuticals, Inc., priority 2013, dated 2019)
